Measurements published in patent US6641851B2, “Herbal laxative preparation” (The Himalaya Drug Company, priority 2001, dated 2003).

System: Wistar rats
Experiment: Laxative test in rats
Assay type: in vivo, rat
Settings: for laxative activity: 50 mg/kg b.wt, in words
Experimental: Animals Wistar rats (180-200 g) of either sex were used for the study. The animals were housed in standard laboratory conditions and provided with a temperature of 22±3° C., relative humidity of 50-55% and a 12-hour light/dark cycle. Drinking water and a synthetic pelleted diet (Lipton India Ltd., Mumbal) were supplied ad libitum. The Ethical Committee of the institution approved the experimental protocol. All the animals received humane care according to the criteria outlined in the “Guide for the care and use of Laboratory Animals” prepared by the National Academy of Sciences and published by The National Institute of Heath. Laxative Test in Rats Twenty-four animals of either sex were randomly divided into 4 groups of 6 rats each. Food was withdrawn 12 hrs. before the experiment. […] The animals were then housed individually in cages lined with blotting paper and observed for 24 hrs. The total number of wet fecal produced from each group was noted [Akah P A, Oli […](4):327]. The laxative property of the one of the selected extract KP-4 was further tested to determine the laxative property in relation to the dosage administered in rats. For the purpose the rats were grouped in four groups. Group I received saline and served as control. […] The animals were then housed individually in cages lined with blotting paper and observed for 24 hrs. The total number of wet fecal produced from each group was noted.

COc1cc(/C=C/C(=O)O)ccc1O [Compound C-8, Ferulic acid]
No of Animals Responded (50 mg/Kg, compounds from KP-1B): 10/10
No. of faeces (50 mg/Kg, compounds from KP-1B): 7.80 ± 0.80
On set of Action (50 mg/Kg, compounds from KP-1B): 179.00 ± 22.66 min
Percentage of Action (50 mg/Kg, compounds from KP-1B): 100
laxative activity (listed as C8, 50 mg/kg): significant laxative action
laxative activity (listed as ferulic acid, 50 mg/kg): promising activity

COc1cc(C(=O)O)ccc1O [Compound C-9, Vanillic acid]
No of Animals Responded (50 mg/Kg, compounds from KP-1B): Nil
Percentage of Action (50 mg/Kg, compounds from KP-1B): Nil
